Some test systems named below: KM20L2 colon; BT-549 breast; RXF-631 renal; MDA-N; M19-MEL melanoma; LXFL 529 NSCLC; PC-3 prostate; DMS 273 small cell lung; MDA-MB-231 breast; P388/ADR leukemia; P388 leukemia; SN12K1 renal.
What all share (assay): NCI tumour cell line growth inhibition, 48 h

The values below come from PubChem BioAssay (NCI).

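Cultured in 96-well plates, cells were exposed to test compound for 48 hours across five concentrations. TGI denotes the concentration required for complete inhibition of growth.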

`COc1ccc2[nH]c(-c3ccc(O)cc3)cc(=O)c2c1`: the TGI with KM20L2 colon is > 18.6 µM; with BT-549 breast it was > 100 µM; with RXF-631 renal it was > 100 µM; in the assay with MDA-N, > 100 µM; in the assay with M19-MEL melanoma, > 86 µM; with LXFL 529 NSCLC, > 100 µM. Moreover, the values for the TGI in the assay with PC-3 prostate, with DMS 273 small cell lung and in the assay on MDA-MB-231 breast were > 100 µM, 0.717 µM and > 100 µM, respectively.

`CC1(O)CCn2c(=O)c3cc4ccccc4cc3c(=O)n2C1O` (stereo not drawn): the TGI in the assay with KM20L2 colon, in the assay with RXF-631 renal, with M19-MEL melanoma, with LXFL 529 NSCLC and in the assay on DMS 273 small cell lung was > 100 µM in each case.

Consider `CCCCCCCCCCCCCCCCCCOCC(COCCOCC[N+]1(CCCCCC(=O)[O-])CCCC1)Oc1ncccn1` (stereo not drawn), for which the TGI is 14.5 µM in the assay on KM20L2 colon; 15.9 µM with P388/ADR leukemia; 1.02 µM with P388 leukemia; 17.7 µM in the assay with SN12K1 renal; 21.4 µM with BT-549 breast; 23.2 µM with MDA-N. Moreover, the TGI in the assay on M19-MEL melanoma is 1.33 µM; with PC-3 prostate, 15 µM; in the assay on DMS 273 small cell lung it was 2.26 µM; in the assay on MDA-MB-231 breast it was 21.7 µM.

For the compound `C[C@]12C/C(=C/O)C(=O)C(O)=C1CC[C@@H]1C2CC[C@@]2(C)C1CC[C@@H]2O` (stereo partly drawn), the TGI in the assay with KM20L2 colon turned out to be 54.6 µM; in the assay with RXF-631 renal, 48.8 µM; in the assay on M19-MEL melanoma, 45.3 µM; in the assay on LXFL 529 NSCLC, 31.7 µM; with DMS 273 small cell lung, 51.1 µM.

For the compound `CN(C)C(=S)Nc1nnc(Nc2ccccc2)s1`, the TGI in the assay with KM20L2 colon, in the assay with RXF-631 renal, in the assay on M19-MEL melanoma, in the assay on LXFL 529 NSCLC and with DMS 273 small cell lung was > 100 µM each time.

For `COc1cc(CNc2nc3ccc(C(F)(F)F)cc3nc2-c2ccccc2)cc(OC)c1OC`, the TGI in the assay with KM20L2 colon, in the assay with RXF-631 renal, in the assay on M19-MEL melanoma, with LXFL 529 NSCLC and in the assay on DMS 273 small cell lung was > 100 µM throughout.

`CCCCCCC(C)CCCCCCCCCCC(=O)O` (stereo not drawn): the TGI in the assay with KM20L2 colon, in the assay with RXF-631 renal, in the assay on M19-MEL melanoma, with LXFL 529 NSCLC and in the assay with DMS 273 small cell lung was > 100 µM throughout.

Regarding `Cc1cccc(N(CC(=O)O)S(=O)(=O)c2ccccc2)c1`, the TGI in the assay on KM20L2 colon, in the assay with RXF-631 renal, in the assay on M19-MEL melanoma, with LXFL 529 NSCLC and in the assay on DMS 273 small cell lung was > 100 µM each time.

As for `COC(=O)C1C(=O)N(CCc2c[nH]c3ccccc23)C[C@@H]2CCC(=O)C[C@H]12` (stereo partly drawn), the TGI in the assay on RXF-631 renal, in the assay on M19-MEL melanoma, with LXFL 529 NSCLC and in the assay with DMS 273 small cell lung was > 100 µM in each case.

As to `Cc1c(C(=O)/C=C/c2ccccc2[N+](=O)[O-])[n+](=O)c2ccccc2n1[O-]`, the TGI in the assay on KM20L2 colon turned out to be 18 µM; with RXF-631 renal, 23.9 µM; with M19-MEL melanoma, 20.5 µM; in the assay on LXFL 529 NSCLC it was 16.6 µM; in the assay with DMS 273 small cell lung, 16.8 µM.

As to `N#Cc1c(-c2ccco2)cc(-c2ccccc2)[nH]c1=O`, the TGI with KM20L2 colon, in the assay with RXF-631 renal, in the assay with M19-MEL melanoma, in the assay with LXFL 529 NSCLC and in the assay on DMS 273 small cell lung was > 100 µM throughout.

Take `CC(C)(C)OC(=O)NC1CCCC1=O` (stereo not drawn): the TGI in the assay with KM20L2 colon, with RXF-631 renal, with M19-MEL melanoma, in the assay with LXFL 529 NSCLC and in the assay with DMS 273 small cell lung was > 100 µM in each case.

With `CCOC(OC1=C(C#N)CCCC1)C(CC)[Se]c1ccccc1` (stereo not drawn), the TGI in the assay with KM20L2 colon was 62.1 µM; in the assay on RXF-631 renal, 26.2 µM; in the assay on M19-MEL melanoma, 48.7 µM; with LXFL 529 NSCLC, 65.9 µM; with DMS 273 small cell lung it was 24.9 µM.

With `O=c1[nH]c2cc([N+](=O)[O-])ccc2nc1/C(=N\Nc1ccccc1)C(O)c1ccc2c(c1)OCO2` (stereo not drawn), the TGI with KM20L2 colon, with RXF-631 renal, with M19-MEL melanoma, in the assay with LXFL 529 NSCLC and in the assay with DMS 273 small cell lung was > 100 µM throughout.

`C=CCNC(=O)N(CCC)CCCC(NC(C)=O)C(=O)NCc1ccccc1` (stereo not drawn): the TGI in the assay with KM20L2 colon, in the assay with RXF-631 renal, with M19-MEL melanoma, with LXFL 529 NSCLC and in the assay with DMS 273 small cell lung was > 100 µM in each case.
